Assay results reported in paper PMC9964242 (Vaccines, 2023).
≈ marks a conversion by molar mass, not a printed value. Where “and” joins values, the source holds several entries; their conditions need not be identical. Equal entries are not always repeated. Where two headings read alike, the source gives them in different places.

What was measured:
MDCK cells [1] = test system: MDCK cells
[2] = test system: influenza A/Egypt/NRC098/2019(H1N1); assay: microbe, parasite or virus in culture; details: H1N1, MDCK
[3] = test system: influenza A/Egypt/NRC098/2019(H1N1)
in vitro = details: dog
Zika virus = details: cited from earlier work
A/ShanTou/169/06 (H1N1) = details: cited from earlier work
MDCK cells [4] = details: cited from earlier work
[5] = test system: influenza A/chicken/Egypt/N12640A/2016 (H5N1); assay: microbe, parasite or virus in culture; type: cell-based, influenza A/H5N1 virus; details: for IC50: Influenza A virus, H5N1, MDCK, read-out: IC50 (half-maximal inhibitory concentration)
[6] = test system: seasonal influenza A/H1N1 virus; type: cell-based; details: for Viral inhibition / inactivation of viral infectivity through direct viricidal action: 10–100 µg/mL
[7] = test system: seasonal influenza A/H1N1 virus; type: cell-based
[8] = test system: seasonal influenza A/H1N1 virus; type: cell-based; remark: listed apart in the source
[9] = read-out: IC50 (half-maximal inhibitory concentration)

Compound | CC50 (half-maximal cytotoxic concentration) (MDCK cells [1]; dog) | IC50 [2, 9] | Antiviral activity against A/H1N1 (in words) [3] | SI (selectivity index = CC50/IC50) [3] | CC50 (in vitro) | IC50 relative to CC50 (in words) [3] | other results
O=c1cc(-c2ccccc2)oc2cc(O)ccc12 [7-Hydroxy flavone] | 5830 µg/mL (≈ 24500 µM) | 360 µg/mL (≈ 1510 µM) | poor antiviral activity | 16.194 | 5830 µg/mL (≈ 24500 µM) | – | –
O=C1c2cccc(O)c2C(=O)c2c(O)cc(CO)cc21 [Aloe emodin] | 2280 µg/mL (≈ 8440 µM) | 729 µg/mL (≈ 2700 µM) | – | 3.127 | 2280 µg/mL (≈ 8440 µM) | – | –
OC[C@H]1O[C@@H](Oc2ccc(O)cc2)[C@H](O)[C@@H](O)[C@@H]1O [Arbutin] | – | 764 µg/mL (≈ 2810 µM) | – | >13.09 | > 10000 µg/mL | – | –
Cc1cc(O)c2c(c1)C(=O)c1cccc(O)c1C2=O [Chrysophanic acid] | 46.1 µg/mL (≈ 181 µM) | – | – | – | 46.1 µg/mL (≈ 181 µM) | IC50 > CC50 | –
O=C[C@H](O)[C@@H](O)[C@@H](O)[C@H](O)C(=O)O [D-Galacturonic acid, Galacturonic acid] | 9610 µg/mL (≈ 49500 µM) | – | – | – | 9610 µg/mL (≈ 49500 µM) | IC50 > CC50 | –
O=C[C@H](O)[C@@H](O)[C@H](O)[C@H](O)C(=O)O [D-Glucuronic acid, Glucuronic acid] | 10260 µg/mL (≈ 52800 µM) | – | – | – | 10300 µg/mL (≈ 52800 µM) | IC50 > CC50 | –
OC[C@@H](O)[C@@H](O)[C@H](O)[C@@H](O)CO [D-sorbitol] | – | 3110 µg/mL (≈ 17100 µM) | – | >3.215 | > 10000 µg/mL | – | –
C[C@@H]1CC[C@@]2(OC1)O[C@H]1[C@@H](O)[C@H]3[C@@H]4CC[C@H]5C[C@@H](O[C@@H]6O[C@H](CO)[C@H](O[C@@H]7O[C@H](CO)[C@@H](O)[C@H](O[C@@H]8OC[C@@H](O)[C@H](O)[C@H]8O)[C@H]7O[C@@H]7O[C@H](CO)[C@H](O)[C@H](O[C@@H]8O[C@H](CO)[C@@H](O)[C@H](O)[C@H]8O)[C@H]7O)[C@H](O)[C@H]6O)[C@H](O)C[C@]5(C)[C@H]4CC[C@]3(C)[C@H]1[C@@H]2C [Digitonin] | 442 µg/mL (≈ 360 µM) | 21.5 µg/mL (≈ 17.5 µM) | moderate antiviral activity | 20.56 | 442 µg/mL (≈ 360 µM) | – | IC50 (Zika virus): 7.91 µM; IC50 [2]: 21.6 µg/mL (≈ 17.5 µM)
C[C@]12CC[C@@H]3c4ccc(O)cc4CC[C@H]3[C@@H]1CC[C@@H]2O [Estradiol, estradiol, reference compound] | – | – | – | – | > 5000 µg/mL | – | IC50 [2]: 7.1 µg/mL (≈ 26.1 µM)
O=C1CC(c2ccccc2)Oc2ccccc21 (centres unmarked) [Flavanone] | – | – | – | – | – | IC50 > CC50 | CC50 (half-maximal cytotoxic concentration) (MDCK cells [1]): 450 µg/mL (≈ 2010 µM)
O=c1c(O[C@@H]2O[C@H](CO)[C@@H](O)[C@H](O)[C@H]2O)c(-c2ccc(O)c(O)c2)oc2cc(O)cc(O)c12 [Isoquercitrin] | 710 µg/mL (≈ 1530 µM) | 167 µg/mL (≈ 360 µM) | poor antiviral potential | 4.25 | 710 µg/mL (≈ 1530 µM) | – | –
C[C@@H]1O[C@@H](Oc2cc(O)c3c(=O)c(O[C@@H]4O[C@@H](C)[C@H](O)[C@@H](O)[C@H]4O)c(-c4ccc(O)cc4)oc3c2)[C@H](O)[C@H](O)[C@H]1O [Kaempferitrin] | – | 47.8 µg/mL (≈ 82.6 µM) | moderate antiviral activity | >209.20 | > 10000 µg/mL | – | –
C=C(C)[C@@H]1CC[C@]2(C)CC[C@]3(C)[C@H](CC[C@@H]4[C@@]5(C)CC[C@H](O)C(C)(C)[C@@H]5CC[C@]43C)[C@@H]12 [Lupeol] | 560 µg/mL (≈ 1310 µM) | 93.6 µg/mL (≈ 219 µM) | – | 5.98 | 560 µg/mL (≈ 1310 µM) | – | IC50 [2]: 93.7 µg/mL (≈ 220 µM)
C[C@@H]1O[C@@H](O[C@H]2[C@H](Oc3cc(O)c4c(c3)O[C@H](c3ccc(O)cc3)CC4=O)O[C@H](CO)[C@@H](O)[C@@H]2O)[C@H](O)[C@H](O)[C@H]1O [Naringin] | – | 20.6 µg/mL (≈ 35.5 µM) | moderate antiviral activity | >485.43 | > 10000 µg/mL | – | IC50 [2]: 20.7 µg/mL (≈ 35.6 µM)
O=C(O)/C=C/c1ccccc1O [O-Coumaric acid] | 9172 µg/mL (≈ 55900 µM) | – | – | – | 9170 µg/mL (≈ 55900 µM) | IC50 > CC50 | –
O=C1C[C@@H](c2ccccc2)Oc2cc(O)cc(O)c21 [Pinocembrin] | – | > 10000 µg/mL | poor anti-H1N1 activity | – | > 10000 µg/mL | – | –
COc1cc(C2Oc3cc([C@H]4Oc5cc(O)cc(O)c5C(=O)[C@@H]4O)ccc3OC2CO)ccc1O (some centres unmarked) [Silybin] | 9480 µg/mL (≈ 19700 µM) | – | poor anti-influenza potential | – | 9480 µg/mL (≈ 19700 µM) | IC50 > CC50 | EC50 (A/ShanTou/169/06 (H1N1)): 70.8 ± 8.11 µM; CC50 (MDCK cells [4]): > 400 µM
COc1cc(C=O)ccc1O [Vanillin] | 242 µg/mL (≈ 1590 µM) | – | – | – | 242 µg/mL (≈ 1590 µM) | IC50 > CC50 | –
CC(=O)N[C@H]1[C@H]([C@H](O)[C@H](O)CO)OC(C(=O)O)=C[C@@H]1N=C(N)N [Zanamivir, reference compound] | – | 0.792 µg/mL (≈ 2.38 µM) | – | >12,626 | > 10000 µg/mL | – | SI (selectivity index = CC50/IC50) [5]: >37,736; IC50 [5]: 0.265 µg/mL (≈ 0.797 µM)
CC[C@H](CC[C@@H](C)[C@H]1CC[C@H]2[C@@H]3CC=C4C[C@@H](O[C@@H]5O[C@H](CO)[C@@H](O)[C@H](O)[C@H]5O)CC[C@]4(C)[C@H]3CC[C@]12C)C(C)C [β-sitosterol-O-glucoside] | 1750 µg/mL (≈ 3030 µM) | 0.719 µg/mL (≈ 1.25 µM) | – | 2434 | 1750 µg/mL (≈ 3030 µM) | – | Plaque reduction %, Viricidal [6]: 83.6% and 93.3% and 97.1%; Viral inhibition / inactivation of viral infectivity through direct viricidal action [6]: up to 90%; IC50 [5]: 0.613 µg/mL (≈ 1.06 µM); Plaque reduction %, Viral Replication [7]: 28.7% and 37.7% and 52.8%; Plaque reduction %, Viral Adsorption [8]: 35.8% and 48.3% and 56.9%
CC[C@H](CC[C@@H](C)[C@H]1CC[C@H]2[C@@H]3CC=C4C[C@@H](O)CC[C@]4(C)[C@H]3CC[C@]12C)C(C)C [β-sitosterol] | 9900 µg/mL (≈ 23900 µM) | 0.975 µg/mL (≈ 2.35 µM) | – | 10,154 | 9900 µg/mL (≈ 23900 µM) | – | Plaque reduction %, Viricidal [6]: 84% and 98.5% and 99%; Viral inhibition / inactivation of viral infectivity through direct viricidal action [6]: up to 90%; IC50 [5]: 0.295 µg/mL (≈ 0.711 µM); Plaque reduction %, Viral Replication [7]: 31.8% and 41.2% and 52.9%; Plaque reduction %, Viral Adsorption [8]: 28% and 37.5% and 52.5%
